Like-named read-outs stand apart in the source and are kept apart here.
Legend:
[1] = target: GSK3α (GST-full length GSK3α) (Homo sapiens (Human), UniProt P49840); assay: GSK3α TR-FRET kinase assay; assay type: biochemical
Procedure, shortened: (§1)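 Full-length GST-tagged human enzyme (1 nM) is exposed to test compound for 30 min before substrates are added. Phosphorylation of a primed biotinylated glycogen synthase peptide proceeds 100 min at room temperature at low ATP (4 μM α; 2 μM β) or high ATP (1 mM). Product is quantified by TR-FRET.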

[2] = target: GSK3b (GST-full length GSK3b) (Homo sapiens (Human), UniProt P49841); assay: GSK3b TR-FRET kinase assay; assay type: biochemical
Procedure, shortened: as §1

[3] = 1 nM GSK3α, 4 μM ATP, 30 minute preincubation, Table 16, read-out: GSK3-A TR-FRET BIOCHEMICAL (TR-FRET), IC50
[4] = 1 nM GSK3b, 2 μM ATP, 30 minute preincubation, Table 16, read-out: GSK3-B TR-FRET BIOCHEMICAL (TR-FRET), IC50
[5] = 1 nM GSK3α, 4 μM ATP, 30 minute preincubation, Table 16, read-out: GSK3-A TR-FRET BIOCHEMICAL (TR-FRET)
[6] = 1 nM GSK3b, 2 μM ATP, 30 minute preincubation, Table 16, read-out: GSK3-B TR-FRET BIOCHEMICAL (TR-FRET)
[7] = read-out: GSK3-A (TR-FRET 1 mM ATP), GMean, IC50, 1 mM ATP, geometric mean
[8] = read-out: GSK3-B (TR-FRET 1 mM ATP), GMean, IC50, 1 mM ATP, geometric mean

Chain of GSK3α (GST-full length GSK3α) (P49840 whole entry): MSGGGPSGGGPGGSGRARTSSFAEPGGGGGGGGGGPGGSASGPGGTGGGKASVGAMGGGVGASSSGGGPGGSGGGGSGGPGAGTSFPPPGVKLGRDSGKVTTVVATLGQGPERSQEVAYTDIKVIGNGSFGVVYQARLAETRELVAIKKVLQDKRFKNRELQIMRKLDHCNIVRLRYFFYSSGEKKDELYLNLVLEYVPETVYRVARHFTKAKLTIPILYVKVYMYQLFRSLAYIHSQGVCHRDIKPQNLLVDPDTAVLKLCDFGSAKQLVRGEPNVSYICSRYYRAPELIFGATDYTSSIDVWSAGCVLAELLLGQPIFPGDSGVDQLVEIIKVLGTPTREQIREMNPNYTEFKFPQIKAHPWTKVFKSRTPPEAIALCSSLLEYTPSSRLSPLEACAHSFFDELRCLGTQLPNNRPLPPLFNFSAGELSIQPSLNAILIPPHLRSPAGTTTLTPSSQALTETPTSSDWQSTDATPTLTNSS
Chain of GSK3b (GST-full length GSK3b) (P49841 whole entry): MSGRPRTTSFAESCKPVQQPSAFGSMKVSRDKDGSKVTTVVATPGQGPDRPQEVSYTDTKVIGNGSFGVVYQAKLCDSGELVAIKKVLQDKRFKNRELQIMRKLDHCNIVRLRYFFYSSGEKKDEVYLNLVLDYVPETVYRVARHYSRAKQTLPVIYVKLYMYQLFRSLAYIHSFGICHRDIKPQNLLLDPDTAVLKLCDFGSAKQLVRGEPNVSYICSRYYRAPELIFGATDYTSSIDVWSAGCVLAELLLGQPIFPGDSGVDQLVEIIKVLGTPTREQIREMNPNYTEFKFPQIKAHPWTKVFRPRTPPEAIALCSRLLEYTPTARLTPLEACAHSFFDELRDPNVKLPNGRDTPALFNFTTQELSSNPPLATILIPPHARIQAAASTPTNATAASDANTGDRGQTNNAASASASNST

SMILES	IC50 [1, 3]	IC50 [2, 4]	IC50 [1, 5]	IC50 [2, 6]	IC50 [1, 7]	IC50 [2, 8]
CCC1(c2cccc(OC)c2)C2=C(CC(C)(C)NC2=O)Nc2n[nH]c(C(F)(F)F)c21 (stereo not shown) [Compound 949748]	≤ 0.1 µM	0.1 to 1 µM	–	–	–	–
CC[C@]1(c2cccc(C(C)C)c2)C2=C(CC(C)(C)NC2=O)Nc2n[nH]cc21 [Compound 949752]	> 5 µM	> 5 µM	–	–	–	–
CC[C@]1(c2ccccc2)C2=C(C[C@@]3(CCN(C)C3=O)CC2=O)Nc2n[nH]cc21 [Compound 949753]	–	–	1 to 5 µM	> 5 µM	–	–
CC[C@]1(c2ccccc2)C2=C(C[C@]3(CCN(C)C3=O)CC2=O)Nc2n[nH]cc21 [Compound 949754]	–	–	> 5 µM	> 5 µM	–	–
CC[C@]1(c2cccc(-c3ccncc3F)c2)C2=C(CC(C)(C)NC2=O)Nc2n[nH]c(Cl)c21 [Compound 949756]	> 5 µM	> 5 µM	–	–	–	–
CC[C@@]1(c2cccc(-c3ccncc3F)c2)C2=C(CC(C)(C)NC2=O)Nc2n[nH]c(Cl)c21 [Compound 949757]	≤ 0.1 µM	≤ 0.1 µM	–	–	0.1 to 1 µM	1 to 5 µM
CC[C@@]1(c2ccccc2)C2=C(C[C@]3(CCN(C)C3=O)CC2=O)Nc2n[nH]cc21 [Compound 949759]	–	–	> 5 µM	> 5 µM	–	–
CC[C@@]1(c2ccccc2)C2=C(C[C@@]3(CCN(C)C3=O)CC2=O)Nc2n[nH]cc21 [Compound 949760]	–	–	0.1 to 1 µM	> 5 µM	–	–
CCC1(c2cccc(C(C)C)c2)C2=C(CC(C)(C)NC2=O)Nc2n[nH]cc21 (stereo not shown) [Compound 949761]	≤ 0.1 µM	0.1 to 1 µM	–	–	0.1 to 1 µM	> 5 µM
CCC1(c2cccc(Br)c2)C2=C(CC(C)(C)C2=O)Nc2n[nH]cc21 (stereo not shown) [Compound 949805]	0.1 to 1 µM	1 to 5 µM	–	–	–	–
CCC1(c2cccc(C(F)(F)F)c2)C2=C(CCN(c3ccn(C)n3)C2=O)Nc2n[nH]cc21 (stereo not shown) [Compound 949835]	≤ 0.1 µM	0.1 to 1 µM	–	–	–	–
CC[C@]1(c2cccc(C(F)(F)F)c2)C2=C(CCN(c3ccn(C)n3)C2=O)Nc2n[nH]cc21 [Compound 949836]	1 to 5 µM	> 5 µM	–	–	–	–
CCC1(c2cccc(-c3ccnc(C)c3)c2)C2=C(CC(C)(C)C2=O)Nc2n[nH]cc21 (stereo not shown) [Compound 949840]	0.1 to 1 µM	1 to 5 µM	–	–	–	–
CCn1cc(N2CCC3=C(C2=O)[C@](CC)(c2cccc(C(F)(F)F)c2)c2c[nH]nc2N3)cn1 [Compound 949867]	≤ 0.1 µM	0.1 to 1 µM	–	–	–	–
CCn1cc(N2CCC3=C(C2=O)[C@](CC)(c2cccc(C(F)(F)F)c2)c2c[nH]nc2N3)cn1 [Compound 949868]	0.1 to 1 µM	> 5 µM	–	–	–	–
CCC1(c2cccc(-c3cc(C)nnc3C)c2)C2=C(CC(C)(C)NC2=O)Nc2n[nH]c(C(F)(F)F)c21 (stereo not shown) [Compound 949910]	≤ 0.1 µM	≤ 0.1 µM	–	–	–	–
CC[C@]1(c2cccc(-c3cnn(C)c3)c2)C2=C(CC(C)(C)NC2=O)Nc2n[nH]c(C(F)F)c21 [Compound 949911]	0.1 to 1 µM	> 5 µM	–	–	–	–
CC[C@@]1(c2cccc(-c3cnn(C)c3)c2)C2=C(CC(C)(C)NC2=O)Nc2n[nH]c(C(F)F)c21 [Compound 949919]	≤ 0.1 µM	≤ 0.1 µM	–	–	≤ 0.1 µM	0.1 to 1 µM
CC[C@]1(c2cccc(-c3cnn(C4CC4(F)F)c3)c2)C2=C(CC(C)(C)NC2=O)Nc2n[nH]cc21 (stereo partly shown) [Compound 950060]	≤ 0.1 µM	0.1 to 1 µM	–	–	–	–
CC[C@]1(c2cccc(-c3cnn(C(C)C)c3F)c2)C2=C(CC(C)(C)NC2=O)Nc2n[nH]cc21 [Compound 950061]	0.1 to 1 µM	> 5 µM	–	–	–	–
CCC1(c2cccc(Cc3ncccn3)c2)C2=C(CC(C)(C)NC2=O)Nc2n[nH]cc21 (stereo not shown) [Compound 950151]	≤ 0.1 µM	1 to 5 µM	–	–	–	–
CC[C@]1(c2ccccc2)C2=C(C[C@@]3(CCNC3=O)CC2=O)Nc2n[nH]cc21 [Compound 950160]	–	–	1 to 5 µM	> 5 µM	–	–
CC[C@@]1(c2ccccc2)C2=C(C[C@@]3(CCNC3=O)CC2=O)Nc2n[nH]cc21 [Compound 950161]	–	–	1 to 5 µM	> 5 µM	–	–
CCC1(c2cccc(-c3ccnc(C)c3)c2)C2=C(CC(C)(C)NC2=O)Nc2n[nH]c(C(F)F)c21 (stereo not shown) [Compound 950162]	0.1 to 1 µM	0.1 to 1 µM	–	–	–	–
CC[C@@]1(c2ccccc2)C2=C(C[C@]3(CCNC3=O)CC2=O)Nc2n[nH]cc21 [Compound 950164]	–	–	> 5 µM	> 5 µM	–	–
CC[C@]1(c2ccccc2)C2=C(C[C@]3(CCNC3=O)CC2=O)Nc2n[nH]cc21 [Compound 950165]	–	–	> 5 µM	> 5 µM	–	–
CC[C@]1(c2cccc(-c3cnn(C(F)F)c3)c2)C2=C(CC(C)(C)NC2=O)Nc2n[nH]cc21 [Compound 950254]	≤ 0.1 µM	1 to 5 µM	–	–	–	–

SMILES	IC50 [1, 3]	IC50 [2, 4]	IC50 [1, 5]	IC50 [2, 6]	IC50 [1, 7]	IC50 [2, 8]
CC[C@@]1(c2cccc(C(F)(F)F)c2)C2=C(CC(C)(C)C2=O)Nc2n[nH]cc21 [Compound 950272]	≤ 0.1 µM	0.1 to 1 µM	–	–	–	–
CCC1(c2cccc(C(F)(F)F)c2)C2=C(CC(C)(C)C2=O)Nc2n[nH]cc21 (stereo not shown) [Compound 950273]	> 5 µM	> 5 µM	–	–	–	–
CC[C@@]1(c2cccc(-c3ccnc(C)c3)c2)C2=C(CC(C)(C)C2=O)Nc2n[nH]cc21 [Compound 950282]	≤ 0.1 µM	0.1 to 1 µM	–	–	–	–
CCC1(c2cccc(Oc3ncccn3)c2)C2=C(CC(C)(C)NC2=O)Nc2n[nH]c(Cl)c21 (stereo not shown) [Compound 950318]	≤ 0.1 µM	≤ 0.1 µM	–	–	–	–
CCC1(c2cccc(-c3ccncc3F)c2)C2=C(CC(C)(C)NC2=O)Nc2n[nH]c(C(F)F)c21 (stereo not shown) [Compound 950320]	≤ 0.1 µM	≤ 0.1 µM	–	–	–	–
CCC1(c2cccc(Oc3ncccn3)c2)C2=C(CC(C)(C)NC2=O)Nc2n[nH]c(C(F)(F)F)c21 (stereo not shown) [Compound 950323]	≤ 0.1 µM	≤ 0.1 µM	–	–	–	–
CCC1(c2cccc(C(F)(F)F)c2)C2=C(CC3(CCNC3=O)CC2=O)Nc2n[nH]cc21 (stereo not shown) [Compound 950324]	–	–	≤ 0.1 µM	0.1 to 1 µM	–	–
CC[C@]1(c2cccc(C(F)(F)F)c2)C2=C(C[C@@]3(CCN(C)C3=O)CC2=O)Nc2n[nH]cc21 [Compound 950325]	–	–	> 5 µM	> 5 µM	–	–
CCC1(c2cccc(C(F)(F)F)c2)C2=C(CC3(CCN(C)C3=O)CC2=O)Nc2n[nH]cc21 (stereo not shown) [Compound 950329]	–	–	≤ 0.1 µM	≤ 0.1 µM	–	–
CCC1(c2cccc(C(F)(F)F)c2)C2=C(CC3(CCN(C)C3=O)CC2=O)Nc2n[nH]cc21 (stereo not shown) [Compound 950330]	–	–	0.1 to 1 µM	> 5 µM	–	–
CCC1(c2cccc(C(F)(F)F)c2)C2=C(CC3(CCNC3=O)CC2=O)Nc2n[nH]cc21 (stereo not shown) [Compound 950331]	–	–	0.1 to 1 µM	> 5 µM	–	–
CC[C@@]1(c2cccc(C(F)(F)F)c2)C2=C(C[C@]3(CCNC3=O)CC2=O)Nc2n[nH]cc21 [Compound 950332]	–	–	> 5 µM	> 5 µM	–	–
CC[C@@]1(c2cccc(C(F)(F)F)c2)C2=C(C[C@@]3(CCNC3=O)CC2=O)Nc2n[nH]cc21 [Compound 950333]	–	–	≤ 0.1 µM	0.1 to 1 µM	–	–
Cc1nccc([C@H]2CC[C@]3(CC2)C2=C(CC(C)(C)CC2=O)Nc2n[nH]cc23)c1C [Compound 950477]	–	–	0.1 to 1 µM	0.1 to 1 µM	–	–
Cc1nccc([C@H]2CC[C@@]3(CC2)C2=C(CC(C)(C)CC2=O)Nc2n[nH]cc23)c1C [Compound 950478]	–	–	≤ 0.1 µM	≤ 0.1 µM	–	–
CCC1(c2cccc(C(F)(F)F)c2)C2=C(CCN(c3cn[nH]c3)C2=O)Nc2n[nH]cc21 (stereo not shown) [Compound 950479]	≤ 0.1 µM	0.1 to 1 µM	–	–	–	–
CCC1(c2cccc(N(C)c3ncccn3)c2)C2=C(CC(C)(C)NC2=O)Nc2n[nH]c(C(F)F)c21 (stereo not shown) [Compound 950484]	≤ 0.1 µM	≤ 0.1 µM	–	–	–	–
CCC1(c2cccc(C(F)(F)F)c2)C2=C(CCN(c3nn(C)cc3C)C2=O)Nc2n[nH]cc21 (stereo not shown) [Compound 950486]	0.1 to 1 µM	1 to 5 µM	–	–	–	–
CC[C@]1(c2cccc(C(C)C)c2)C2=C(CC(C)(C)NC2=O)Nc2n[nH]c(C(F)(F)F)c21 [Compound 950493]	0.1 to 1 µM	0.1 to 1 µM	–	–	–	–
CC[C@]1(c2cccc(-c3cnn(C)c3F)c2)C2=C(CC(C)(C)NC2=O)Nc2n[nH]cc21 [Compound 950562]	≤ 0.1 µM	0.1 to 1 µM	–	–	–	–
CC[C@]1(c2cccc(-c3cnn4c3CC(C)(C)CC4)c2)C2=C(CC(C)(C)NC2=O)Nc2n[nH]cc21 [Compound 950564]	≤ 0.1 µM	0.1 to 1 µM	–	–	–	–
CCC1(c2cccc(C(F)(F)F)c2)C2=C(CCN(c3cc(C)n(C)n3)C2=O)Nc2n[nH]cc21 (stereo not shown) [Compound 950608]	0.1 to 1 µM	1 to 5 µM	–	–	–	–
CCC1(c2cccc(C(F)(F)F)c2)C2=C(CCN(c3cnn(C)c3C)C2=O)Nc2n[nH]cc21 (stereo not shown) [Compound 950612]	≤ 0.1 µM	1 to 5 µM	–	–	–	–
CCC1(c2cccc(C(F)(F)F)c2)C2=C(CCN(c3cccs3)C2=O)Nc2n[nH]cc21 (stereo not shown) [Compound 950614]	≤ 0.1 µM	0.1 to 1 µM	–	–	–	–
CCC1(c2cccc(Oc3ncccn3)c2)C2=C(CC(C)(C)NC2=O)Nc2n[nH]c(F)c21 (stereo not shown) [Compound 950615]	≤ 0.1 µM	0.1 to 1 µM	–	–	–	–
CCC1(c2cccc(C(F)(F)F)c2)C2=C(CCN(c3ccsc3)C2=O)Nc2n[nH]cc21 (stereo not shown) [Compound 950776]	≤ 0.1 µM	0.1 to 1 µM	–	–	–	–

Source: US20250313563A1, “GLYCOGEN SYNTHASE KINASE 3 INHIBITORS AND USES THEREOF” (The Broad Institute, Inc., priority 2022, published 2025)
